# Laboratory results reported in paper PMC4109617, “The functionalized amino acid (S)-Lacosamide subverts CRMP2-mediated tubulin polymerization to prevent constitutive and activity-dependent increase in neurite outgrowth” (Frontiers in Cellular Neuroscience, 2014).
# Biological target: T1, CRMP2 (collapsin response mediator protein 2) (Rattus norvegicus, UniProt P47942)
# T1 construct: gene Dpysl2; purified recombinant wild-type CRMP2 (GST construct), NT647-labeled
# Test: microscale thermophoresis (MST), Hill fit
# Assay type: binding
smiles,measurement,value
"COC[C@H](NC(C)=O)C(=O)NCc1ccccc1 [(S)-LCM, (S)-lacosamide]",Kd,1500 ± 10 nM
